Where no end group is shown, it is not given here.

Consider two substances from patent US11413337B2, “Peptide conjugated particles for the treatment of inflammation” (Northwestern University, priority 2012, dated 2022).

Data set [1] relates to Relapsing Experimental Autoimmune Encephalitis (R-EAE). The experiment in a line: prophylactic tolerance in PLP139-151/CFA-induced R-EAE, particles given day −7. Format: in vivo, mouse. To be noted: treated day −7 relative to immunization.
Data set [2] concerns cervical spinal cord. Briefly: spinal cord histology and in vivo imaging in R-EAE. On the set-up: species or system mouse. To be noted: spinal cord, day 40. As for the experimental part:
An additional therapeutic tolerance strategy was performed by delivering PLP139-151-PLG or OVA323-339 PLG to mice. […] Mice were treated with PLP-PLG or OVA323-339-PLG and the tissue was retrieved at day 40. The cervical spinal cord was isolated and sectioned to investigate the immune response within the CNS, which underlies the pathology of R-EAE and multiple sclerosis.
The clinical scores and percent incidence of EAE were determined (FIG. 10B) and the spinal cords observed via in vivo imaging (FIGS. 10A and 11). […] The bar graphs give the numerical numbers to the signal strength shown in the brain and SC scans.

The test system of data set [3] is Th1 and Th17 responses. The experiment in a line: induction of antigen-specific Th1 and Th17 responses, draining lymph node cells. Format: in vivo, mouse. To be noted: BALB/c mice, iv Day −7, measured Day 10. Here is the method:
To determine whether administration of antigen-coupled particles inhibit induction of T-helper cells, either MOG35-55-PLG or OVA323-339-PLG particles were administered intravenously to BALB/c mice at Day −7. On Day 0, OVA323-339-PLG particles and Complete Freund's Adjuvant (CFA) were administered subcutaneously to the mice. The animals were re-stimulated with either MOG35-55-PLG or OVA323-339-PLG particles on Day 10 and the draining lymph node cells were isolated. The CPM and levels of IL-17, GM-CSF, IFN-γ, IL-10, and IL-4 were measured at Day 10.

Data set [4] relates to spleen, liver and lung; macrophages. Briefly: detection and cellular localisation of particles after iv administration. As to conditions: 24 hours after intravenous infusion.
Text: Naïve uninjected mouse (top row) as compared to i.v. fluorescent PLGA/PEMA microparticle injected mouse spleen (left column), liver (middle column) and lung (left column) sections at 3-hours post injection (middle row) and 24-hours (bottom row) post-injection, counterstained with DAPI.

In the case of “OVA323-339-PLG: control peptide OVA323-339 coupled to PLG particles (KISQAVHAAHAEINEAG; also: coupled to PLG particles; UniProt P01012 323-339, looked up, fragment)”, the “prevention of disease induction” value in data set [1] was “did not prevent disease induction”. The “staining for CD45, CD4, and CD11b” value in data set [2] is on record as “positive staining”. The “Th1 and Th17 responses” value in data set [3] was “inhibited the Th1 and Th17 responses”.
Regarding “TAMRA-labeled PLP139-151-coupled particles: particles coupled with TAMRA-labeled PLP139-151 (CHCLGKWLGHPDK; cysteine pairing not given here; also: TAMRA label, position not given here, coupled to particles; UniProt P60202 139-151, looked up, fragment)”, the “cells taking up particles” value in data set [4] is recorded as “marginal zone macrophages predominantly uptake”.
